# Reference: patent publication US20230167073A1 (Teijin Pharma Limited, priority 2020, published 2023)
# Target: T1, Human TRPC6 (Homo sapiens, UniProt Q9Y210)
# T1 construct: expressed in transfected cells
# T1 sequence (Q9Y210 1-931): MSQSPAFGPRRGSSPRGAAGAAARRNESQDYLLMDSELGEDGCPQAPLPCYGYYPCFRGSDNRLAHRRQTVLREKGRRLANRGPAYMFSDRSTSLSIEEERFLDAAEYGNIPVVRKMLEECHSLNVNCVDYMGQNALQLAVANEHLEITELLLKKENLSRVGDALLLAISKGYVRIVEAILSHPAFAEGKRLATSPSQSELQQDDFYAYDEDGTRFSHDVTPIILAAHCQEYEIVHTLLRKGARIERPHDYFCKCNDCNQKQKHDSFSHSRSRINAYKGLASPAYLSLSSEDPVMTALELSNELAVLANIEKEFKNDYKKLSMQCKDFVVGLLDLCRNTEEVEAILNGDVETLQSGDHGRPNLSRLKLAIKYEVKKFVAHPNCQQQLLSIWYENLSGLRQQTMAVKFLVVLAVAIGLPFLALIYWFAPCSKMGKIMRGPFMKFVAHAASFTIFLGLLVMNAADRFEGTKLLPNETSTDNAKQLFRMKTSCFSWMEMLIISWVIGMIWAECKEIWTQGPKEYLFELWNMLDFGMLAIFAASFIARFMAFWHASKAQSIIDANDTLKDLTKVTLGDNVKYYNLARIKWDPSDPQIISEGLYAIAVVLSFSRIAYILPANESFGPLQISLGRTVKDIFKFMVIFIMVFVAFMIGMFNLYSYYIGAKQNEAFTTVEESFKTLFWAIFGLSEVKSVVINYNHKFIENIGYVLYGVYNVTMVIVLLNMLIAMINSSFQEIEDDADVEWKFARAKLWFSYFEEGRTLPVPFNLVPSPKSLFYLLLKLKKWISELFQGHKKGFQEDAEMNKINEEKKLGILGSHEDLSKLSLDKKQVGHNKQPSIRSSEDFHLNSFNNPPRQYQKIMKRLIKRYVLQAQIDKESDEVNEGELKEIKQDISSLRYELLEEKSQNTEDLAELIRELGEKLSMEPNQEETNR
# Test: Evaluation of TRPC6 channel inhibitory activity (1), FLIPR Calcium 5 Assay Kit, OAG stimulation (Compound Nos. 1-1293)
# Assay type: cell-based
# Details: Human TRPC6 stably-expressing cells, OAG 30 μM, FLIPR Calcium 5 Assay Kit; read-out: Inhibitory activity (pIC50 class) (converted)
# Method in brief: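 The FLIPR signal is maximum fluorescence after 30 μM OAG minus minimum before compound, measured in a human TRPC6 stable line loaded with Calcium 5 dye. Compounds were preincubated 20 min. pIC50 came from four-parameter logistic fitting of inhibition rates and is given as symbol ranges.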
row,Compound,IC50
1,"Cc1nc(Oc2cc(C#N)ccc2-n2cc([C@H](O)CN)cn2)cc(-c2ccccc2C#N)n1 [compound 344, 4-[4-[(1S)-2-amino-1-hydroxyethyl]pyrazol-1-yl]-3-[6-(2-cyanophenyl)-2-methylpyrimidin-4-yl]oxybenzonitrile]",< 10 nM
2,"Cc1sc(N2CCOCC2)nc1C(=O)c1cc(C#N)ccc1-c1ccc(CCN)cn1 [compound 1068, 4-[5-(2-aminoethyl)pyridin-2-yl]-3-(5-methyl-2-morpholin-4-yl-1,3-thiazole-4-carbonyl)benzonitrile]",10 to 1000 nM
3,"Cn1nc(C2CC2)cc1Oc1cc(C#N)ccc1-c1ccc(C(N)C(=O)O)cn1 (stereo not shown) [compound 426, 2-amino-2-[6-[4-cyano-2-(5-cyclopropyl-2-methylpyrazol-3-yl)oxyphenyl]pyridin-3-yl]acetic acid]",< 10 nM
4,"Cn1nc(N2CCCCC2)cc1Oc1cc(C#N)ccc1-c1ccc(CCN)cn1 [compound 541, 4-[5-(2-aminoethyl)pyridin-2-yl]-3-(2-methyl-5-piperidin-1-ylpyrazol-3-yl)oxybenzonitrile]",< 10 nM
5,"N#Cc1ccc(-c2ncc(CCN)cn2)c(Oc2cc(N3CCCC3)ncc2C#N)c1 [compound 739, 4-[2-[5-(2-aminoethyl)pyrimidin-2-yl]-5-cyanophenoxy]-6-pyrrolidin-1-ylpyridine-3-carbonitrile]",10 to 1000 nM
6,"COCCN(C)c1cc(Oc2cc(C#N)ccc2-c2ncc(CN)cn2)n(C)n1 [compound 798, 4-[5-(aminomethyl)pyrimidin-2-yl]-3-[5-[2-methoxyethyl(methyl)amino]-2-methylpyrazol-3-yl]oxybenzonitrile]",10 to 1000 nM
7,"N#Cc1ccc(-c2ncc(CCN)cn2)c(C(=O)c2cnn(C3CCOCC3)c2)c1 [compound 1041, 4-[5-(2-aminoethyl)pyrimidin-2-yl]-3-[1-(oxan-4-yl)pyrazole-4-carbonyl]benzonitrile]",10 to 1000 nM
8,"Cn1nc(C2CC2)c(F)c1Oc1cc(C#N)ccc1-c1ncc(CCN)cn1 [compound 359, 4-[5-(2-aminoethyl)pyrimidin-2-yl]-3-(5-cyclopropyl-4-fluoro-2-methylpyrazol-3-yl)oxybenzonitrile]",10 to 1000 nM
9,"Cn1ccnc1-c1cc(Oc2cc(C#N)ccc2-c2ncc(CN)cn2)n(C)n1 [compound 936, 4-[5-(aminomethyl)pyrimidin-2-yl]-3-[2-methyl-5-(1-methylimidazol-2-yl)pyrazol-3-yl]oxybenzonitrile]",10 to 1000 nM
10,"Cn1nc(N2CCCCC2)cc1Oc1cc(C#N)ccc1-c1ccc(CC2(N)COC2)cn1 [compound 742, 4-[5-[(3-aminooxetan-3-yl)methyl]pyridin-2-yl]-3-(2-methyl-5-piperidin-1-ylpyrazol-3-yl)oxybenzonitrile]",< 10 nM
11,"Cn1nc(C2CC2)cc1Oc1cc(C#N)ccc1-c1cccn(CCN)c1=O [compound 573, 4-[1-(2-aminoethyl)-2-oxopyridin-3-yl]-3-(5-cyclopropyl-2-methylpyrazol-3-yl)oxybenzonitrile]",10 to 1000 nM
12,"Cc1nnc(N2CCOCC2)cc1Oc1cc(C#N)ccc1-c1ncc(CN)cn1 [compound 825, 4-[5-(aminomethyl)pyrimidin-2-yl]-3-(3-methyl-6-morpholin-4-ylpyridazin-4-yl)oxybenzonitrile]",10 to 1000 nM
13,"CCN(CC)c1cc(Cc2cc(C#N)ccc2-c2ncc(CN)cn2)n(C)n1 [compound 1206, 4-[5-(aminomethyl)pyrimidin-2-yl]-3-[[5-(diethylamino)-2-methylpyrazol-3-yl]methyl]benzonitrile]",< 10 nM
14,"N#Cc1ccc(-c2ncc(CCN)cn2)c(Oc2cnn(CC(F)(F)F)c2)c1 [compound 911, 4-[5-(2-aminoethyl)pyrimidin-2-yl]-3-[1-(2,2,2-trifluoroethyl)pyrazol-4-yl]oxybenzonitrile]",10 to 1000 nM
15,"Cc1ccccc1-c1cn(Cc2cc(C#N)ccc2-c2ccc(CCN)cn2)c(C)n1 [compound 1151, 4-[5-(2-aminoethyl)pyridin-2-yl]-3-[[2-methyl-4-(2-methylphenyl)imidazol-1-yl]methyl]benzonitrile]",< 10 nM
16,"Cc1nc(Oc2cc(C#N)ccc2-n2cc([C@@H](O)CN)cn2)cc(-c2ccccc2F)n1 [compound 339, 4-[4-[(1R)-2-amino-1-hydroxyethyl]pyrazol-1-yl]-3-[6-(2-fluorophenyl)-2-methylpyrimidin-4-yl]oxybenzonitrile]",10 to 1000 nM

row,Compound,IC50
1,"N#Cc1ccc(-c2ncc(CCN)cn2)c(C(=O)c2cnn(-c3ccccn3)c2)c1 [compound 1037, 4-[5-(2-aminoethyl)pyrimidin-2-yl]-3-(1-pyridin-2-ylpyrazole-4-carbonyl)benzonitrile]",< 10 nM
2,"N#Cc1ccc(-c2ncc(CCN)cn2)c(C(=O)c2cnn(-c3nccs3)c2)c1 [compound 1048, 4-[5-(2-aminoethyl)pyrimidin-2-yl]-3-[1-(1,3-thiazol-2-yl)pyrazole-4-carbonyl]benzonitrile]",< 10 nM
3,"CC(C)Cn1cc(Oc2cc(C#N)ccc2-c2ncc(CN)cn2)cn1 [compound 908, 4-[5-(aminomethyl)pyrimidin-2-yl]-3-[1-(2-methylpropyl)pyrazol-4-yl]oxybenzonitrile]",< 10 nM
4,"Cc1nc(Oc2cc(C#N)ccc2-c2ccc(C(CN)c3ccoc3)cc2)cc(N2CCOCC2)n1 (stereo not shown) [Compound 73, 4-[4-[2-amino-1-(furan-3-yl)ethyl]phenyl]-3-(2-methyl-6-morpholin-4-ylpyrimidin-4-yl)oxybenzonitrile]",10 to 1000 nM
5,"Cc1nc(Oc2cc(C#N)ccc2-c2ccc([C@H](O)CN)cn2)cc(N2C[C@@H](C)O[C@@H](C)C2)n1 [compound 523, 4-[5-[(1S)-2-amino-1-hydroxyethyl]pyridin-2-yl]-3-[6-[(2S,6R)-2,6-dimethylmorpholin-4-yl]-2-methylpyrimidin-4-yl]oxybenzonitrile]",10 to 1000 nM
6,"Cc1cc(Oc2cc(C#N)ccc2-c2ncc(CCN)cn2)cc(N2CCCC2)n1 [Compound 262, 4-[5-(2-aminoethyl)pyrimidin-2-yl]-3-(2-methyl-6-pyrrolidin-1-ylpyridin-4-yl)oxybenzonitrile]",< 10 nM
7,"Cn1nc(C2CC2)cc1Oc1cc(C#N)ccc1-c1cccc(N)n1 [compound 451, 4-(6-aminopyridin-2-yl)-3-(5-cyclopropyl-2-methylpyrazol-3-yl)oxybenzonitrile]",> 1000 nM
8,"Cc1cccc(-c2cc(Oc3cc(C#N)ccc3-n3cc([C@H](O)CN)cn3)nc(C)n2)c1 [Compound 206, 4-[4-[(1S)-2-amino-1-hydroxyethyl]pyrazol-1-yl]-3-[2-methyl-6-(3-methylphenyl)pyrimidin-4-yl]oxybenzonitrile]",< 10 nM
9,"Cc1nc(-c2ccccc2)cn1Cc1cc(C#N)ccc1-n1cc(C(O)CN)cn1 (stereo not shown) [compound 1128, 4-[4-(2-amino-1-hydroxyethyl)pyrazol-1-yl]-3-[(2-methyl-4-phenylimidazol-1-yl)methyl]benzonitrile]",> 1000 nM
10,"N#Cc1ccc(-c2ccc(CCN)cc2)c(Oc2sc(-c3ccccc3)nc2C#N)c1 [compound 807, 5-[2-[4-(2-aminoethyl)phenyl]-5-cyanophenoxy]-2-phenyl-1,3-thiazole-4-carbonitrile]",10 to 1000 nM
11,"N#Cc1ccc(-c2ccc(C(O)CN)cc2)c(Oc2cnnc(-c3ccccc3)c2)c1 (stereo not shown) [Compound 82, 4-[4-(2-amino-1-hydroxyethyl)phenyl]-3-(6-phenylpyridazin-4-yl)oxybenzonitrile]",< 10 nM
12,"Cn1nc(C2CC2)cc1Oc1cc(C#N)ccc1-c1cc(C(=O)N2CCC[C@H](N)C2)ccn1 [compound 555, 4-[4-[(3S)-3-aminopiperidine-1-carbonyl]pyridin-2-yl]-3-(5-cyclopropyl-2-methylpyrazol-3-yl)oxybenzonitrile]",> 1000 nM
13,"N#Cc1ccc(-c2ccc(CCN)cc2)c(Oc2cnnc(-c3ccccc3F)c2)c1 [Compound 116, 4-[4-(2-aminoethyl)phenyl]-3-[6-(2-fluorophenyl)pyridazin-4-yl]oxybenzonitrile]",10 to 1000 nM
14,"N#Cc1ccc(-c2ncc(CCN)cn2)c(Oc2cnnc(N3CCOCC3)c2)c1 [compound 620, 4-[5-(2-aminoethyl)pyrimidin-2-yl]-3-(6-morpholin-4-ylpyridazin-4-yl)oxybenzonitrile]",10 to 1000 nM
15,"Cc1nc(NC2CCOCC2)cc(Oc2cc(C#N)ccc2-c2ncc(CN)cn2)n1 [compound 635, 4-[5-(aminomethyl)pyrimidin-2-yl]-3-[2-methyl-6-(oxan-4 ylamino)pyrimidin-4-yl]oxybenzonitrile]",> 1000 nM
